Experiment [1] has as its target T1, Ras farnesyl transferase (Homo sapiens, UniProt P49354+P49356).
T1 construct: made in house
Put plainly: in vitro inhibitory activity for Ras farnesyl transferase, H-Ras substrate. In kind it is biochemical. Particulars: recombinant Ras farnesyl transferase, H-Ras substrate, tritium-farnesylpyrophosphate, 30 minutes at 37° C.; read-out: H-Ras IC50. As for the experimental part: In the present experiment, Ras farnesyl transferase produced by genetic recombination techniques according to the improved Pompliano's method (Pompliano et al., Biochemistry, 1992, 31, 3800) was used, and Ras substrate(Ras-CVLS) protein described in Korean Patent Appln. No. 97-14409 was used after it has been purified according to the known method(see, Chung et al., Biochimica et Biophysica Acta, 1992, 278, 1129).
(§1) The enzyme reaction was performed in 50 μl of 50 mM Soduam HEPES buffer solution containing 25 mM of potassium chloride, 25 mM of magnesium chloride, 10 mM of DTT and 50 μM of zinc chloride. 1.5 μM of Ras substrate protein, 0.15 μM of tritium-farnesylpyrophosphate and 4.5 nM of farnesyl transferase were used.
(§2) More specifically, in the initial step, farnesyl transferase was added to the above buffer solution, reaction was maintained for 30 minutes at 37° C. and then the reaction was stopped by adding 1 ml of ethanol solution containing 1M HCl. The formed precipitates were adsorbed to GF/B filter using Hopper harvestor(Hopper #FH 225V) for filter-binding, washed with ethanol, and then radioactivity of the dried filter was measured using LKB β counter. Enzyme titer was measured in the unsaturated state of substrate where the concentrations of Ras substrate protein and farnesyl transferase have quantitative relationship. The compound according to the present invention dissolved in dimethyl sulfoxide(DMSO) was added to the reaction solution in an amount of less than 5% of the total reaction solution, and then the enzyme inhibitory activity thereof was measured. The enzyme inhibitory activity was represented by percentage of the amount of farnesyl incorporated into the Ras substrate protein in the presence of the test compound to that in the absence of the test compound. IC50 of the test compound was defined as the concentration at which 50% of the enzyme activity was inhibited.

Experiment [2] concerns the target T2, Ras farnesyl transferase (Rattus norvegicus, UniProt Q02293+Q04631).
T2 construct: endogenous in cells; host or cells: Rat2 fibroblasts transformed with C-Harvey-Ras, or with H-Ras carrying the K-Ras C-terminal polybasic lysine domain
As to the kind of experiment: in vivo (cellular) Ras farnesyl transferase inhibitory activity, Rat2 cells transformed with H-Ras fused with polybasic lysine domain of K-Ras. In kind it is cell-based. As to conditions: Rat2 cell line transformed with H-Ras substituted with polybasic lysine domain at C-terminus of K-Ras; concentration inhibiting 50% of farnesyl binding; read-out: K-Ras CIC50. Here is the method:
(§3) In the present experiment, Rat2 cell line which expresses C-Harvey-Ras protein having transforming activity and Rat2 cell line(Korean patent application No. 97-14409) which is transformed with fused protein of H-Ras substituted with polybasic lysine domain at C-terminus of K-Ras were used. The experiment was performed by the modified Declue's method(Declue. J. E. et al., Cancer Research, 1991, 51, 712). Hereinafter, the experimental method will be described in more detail.
(§4) 3×10^5 cells of transformed Rat2 fibroblast cell line were sprayed on 60 mm cell cultivation dish and cultivated for 48 hours in a cell incubator at 37° C. and after 50% or more of density was reached, it was treated with the test compounds. The compound according to the present invention dissolved in dimethylsulfoxide(DMSO) was used. 1% concentration of dimethylsulfoxide was used in both control and test groups. After 4 hours from the treatment with the compound, methionine labeled with 150 μCi of radioactive isotope [^35S] per 1 ml of medium was added and after cultivating for 20 hours, the cells were washed with physiological saline water. The cells were lysed using 1 ml of cold cell lysis buffer solution(50 mM of Sodium HEPES buffer solution containing 5 mM of magnesium chloride, 1 mM of DTT, 1% NP 40, 1 mM of EDTA, 1 mM of PMSF, 2 μM of leupeptin, 2 μM of pepstatin A and 2 μM of antipain) and the supernatant wherein the cells were lysed was obtained by high-velocity centrifugation of 12,000 g×5 minutes. The amount of radioisotope in the supernatant was measured and standardized to obtain a quantitative result in immunoprecipitation reaction and then, Y13-259, a monoclonal antiboby specifically binding to Ras protein(Furth, M. E. et al., J. Virol, 1982, 43, 294) was added and reacted for 15 hours at 4° C. Protein A(combined with goat anti-murine imunoglobulin antibody)-agarose suspension was added to the solution and reacted for 1 hour at 4° C. and then, to remove the unspecific binding product, immunoprecipitates were washed with a buffer solution (50 mM Tris chloride buffer solution containing 50 mM of sodium chloride, 0.5% of sodium dioxycholate, 0.5% of NP 40 and 0.1% of SDS). The precipitates were added to a buffer solution for electrophoresis and boiled and then, electrophoresis was performed using 13.5% of SDS polyacrylamide gel. After electrophoresis, the gel was fixed and dried. Then, the gel was exposed to X-ray film, developed and printed. From the result of the experiment, intensities of band of protein combined with or without farnesyl of Ras protein were measured, and the concentration of the test compound inhibiting 50% of farnesyl binding was defined as CIC50, an in vivo Ras farnesyl transferase inhibitory activity.

Experiment [3] deals with T2, Ras farnesyl transferase. Put plainly: in vivo (cellular) Ras farnesyl transferase inhibitory activity, Rat2 cells expressing C-Harvey-Ras. In kind it is cell-based. As to conditions: Rat2 cell line expressing C-Harvey-Ras; concentration inhibiting 50% of farnesyl binding of Ras protein; read-out: H-Ras CIC50. As for the experimental part: as §3, §4
In experiment [4] the target is T1, Ras farnesyl transferase. As to the kind of experiment: in vitro inhibitory activity for Ras farnesyl transferase, K-Ras substrate. In kind it is biochemical. As to conditions: recombinant Ras farnesyl transferase, K-Ras substrate; read-out: K-Ras IC50. Here is the method:
In the present experiment, Ras farnesyl transferase produced by genetic recombination techniques according to the improved Pompliano's method (Pompliano et al., Biochemistry, 1992, 31, 3800) was used, […] Appln. No. 97-14409 was used after it has been purified according to the known method(see, Chung et al., Biochimica et Biophysica Acta, 1992, 278, 1129).
as §1, §2

Turning to `O=C(OCc1ccccc1)N1CCC(Cn2cncc2Cn2cc(C(=O)N3CCOCC3)c(-c3cccc4ccccc34)c2)CC1` [Compound 1, 1-[1-(1-Benzyloxycarbonyl-piperidin-4-ylmethyl)-1H-imidazol-5-ylmethyl]-3-(morpholin-4-yl)carbonyl-4-(naphthalen-1-yl)-1H-pyrrole], the IC50 on Ras farnesyl transferase [1] was 8.5 nM; on Ras farnesyl transferase [2], 1000 to 10000 nM; at Ras farnesyl transferase [3], 100 nM; at Ras farnesyl transferase [4], 2400 nM.
As for `O=C(c1cn(Cc2cncn2CC2CCNCC2)cc1-c1cccc2ccccc12)N1CCOCC1` [Compound 2], the IC50 on Ras farnesyl transferase [1] is 9 nM; on Ras farnesyl transferase [2], 10000 to 100000 nM; on Ras farnesyl transferase [3], 100 nM; on Ras farnesyl transferase [4], 6000 nM.
For `CC(=O)N1CCC(Cn2cncc2Cn2cc(C(=O)N3CCOCC3)c(-c3cccc4ccccc34)c2)CC1` [Compound 3, 1-[1-(1-Acetylpiperidin-4-ylmethyl)-1H-imidazol-5-ylmethyl]-3-(morpholinyl)carbonyl-4-(naphthalen-1-yl)-1H-pyrrole], the IC50 on Ras farnesyl transferase [1] is 1 nM; on Ras farnesyl transferase [2] it was 10000 to 50000 nM; on Ras farnesyl transferase [3] it was 10 to 100 nM; on Ras farnesyl transferase [4], 16 nM.
For `CS(=O)(=O)N1CCC(Cn2cncc2Cn2cc(C(=O)N3CCOCC3)c(-c3cccc4ccccc34)c2)CC1` [Compound 4, 1-[1-(1-Methylsulfonyl-piperidin-4-ylmethyl)-1H-imidazol-5-ylmethyl]-3-(morpholin-4-yl)carbonyl-4-(naphthalen-1-yl)-1H-pyrrole] the same measures were 3.6 nM, 10000 to 50000 nM, 10 to 100 nM and 26 nM.
The like results for `COCCN(C)C(=O)c1cn(Cc2cncn2CC2CCN(C(=O)OCc3ccccc3)CC2)cc1-c1cccc2ccccc12` [Compound 5, 1-[1-(1-Benzyloxycarbonyl-piperidin-4-ylmethyl)-1H-imidazol-5-ylmethyl]-3-[N-(2-methoxyethyl)-N-methyl]carbamoyl-4-(naphthalen-1-yl)-1H-pyrrole] were, in that order, 2.5 nM, 1000 to 10000 nM, 10 to 100 nM and 10 to 100 nM.
Turning to `COCCN(C)C(=O)c1cn(Cc2cncn2CC2CCNCC2)cc1-c1cccc2ccccc12` [Compound 6, 3-[N-(2-Methoxyethyl)-N-methyl]carbamoyl-4-(naphthalen-1-yl)-1-[1-(piperidin-4-ylmethyl)-1H-imidazol-5-ylmethyl]-1H-pyrrole], the IC50 is 8 nM on Ras farnesyl transferase [1], 1000 to 10000 nM on Ras farnesyl transferase [2], 10 to 100 nM on Ras farnesyl transferase [3] and 10 to 1000 nM at Ras farnesyl transferase [4].
For the molecule `COCCN(C)C(=O)c1cn(Cc2cncn2CC2CCN(C(C)=O)CC2)cc1-c1cccc2ccccc12` [Compound 7, 1-[1-(1-Acetyl-piperidin-4-ylmethyl)-1H-imidazol-5-ylmethyl]-3-[N-(2-methoxyethyl)-N-methyl]carbamoyl-4-(naphthalen-1-yl)-1H-pyrrole], the IC50 was 1.8 nM on Ras farnesyl transferase [1], 10000 to 100000 nM at Ras farnesyl transferase [2], 10 to 100 nM on Ras farnesyl transferase [3] and 10 to 100 nM on Ras farnesyl transferase [4].
For `COCCN(C)C(=O)c1cn(Cc2cncn2CC2CCN(S(C)(=O)=O)CC2)cc1-c1cccc2ccccc12` [Compound 8, 3-[N-(2-Methoxyethyl)-N-methyl]carbamoyl-1-[1-(1-methylsulfonyl-piperidin-4-ylmethyl)-1H-imidazol-5-ylmethyl]-4-(naphthalen-1-yl)-1H-pyrrole], the IC50 at Ras farnesyl transferase [1] was 1.2 nM; on Ras farnesyl transferase [2] it was 10000 to 50000 nM; on Ras farnesyl transferase [3], 10 to 100 nM; on Ras farnesyl transferase [4], 10 to 100 nM.
Take `COCCN(C)C(=O)c1cn(Cc2cncn2CC2CCN(C(=O)NCc3ccccc3)CC2)cc1-c1cccc2ccccc12` [Compound 9, 1-{1-[1-(N-Benzylcarbamoyl)-piperidin-4-ylmethyl]-1H-imidazol-5-ylmethyl}-3-[N-(2-methoxyethyl)-N-methyl]carbamoyl(naphthalen-1-yl)-1H-pyrrole]: the IC50 was in the range of 1 to 10 nM at Ras farnesyl transferase [1], 1000 to 50000 nM on Ras farnesyl transferase [2], 10 to 100 nM on Ras farnesyl transferase [3] and 10 to 1000 nM at Ras farnesyl transferase [4].
As to `CCCCNC(=O)N1CCC(Cn2cncc2Cn2cc(C(=O)N(C)CCOC)c(-c3cccc4ccccc34)c2)CC1` [Compound 10, 1-{1-[1-(N-Butylcarbamoyl)-piperidin-4-ylmethyl]-1H-imidazol-5-ylmethyl}-3[N-(2-methoxyethyl)-N-methyl]carbamoyl-4-(naphthalen-1-yl)-1H-pyrrole], the IC50 lay in the range of 1 to 10 nM at Ras farnesyl transferase [1], 1000 to 50000 nM at Ras farnesyl transferase [2], 10 to 100 nM at Ras farnesyl transferase [3] and 10 to 1000 nM at Ras farnesyl transferase [4].
For `COCCN(C)C(=O)c1cn(Cc2cncn2CC2CCN(C(=O)NC3CCCCC3)CC2)cc1-c1cccc2ccccc12` [Compound 11, 1-{1-[1-(N-Cyclohexylcarbamoyl)-piperidin-4-ylmethyl]-1H-imidazol-5-ylmethyl}-3-[N-(2-methoxyethyl)-N-methyl]carbamoyl-4-(naphthalen-1-yl)-1H-pyrrole], the IC50 fell in the range of 1 to 10 nM on Ras farnesyl transferase [1], 1000 to 50000 nM on Ras farnesyl transferase [2], 10 to 100 nM at Ras farnesyl transferase [3] and 10 to 1000 nM on Ras farnesyl transferase [4].
Consider `CCCCCCC(=O)N1CCC(Cn2cncc2Cn2cc(C(=O)N(C)CCOC)c(-c3cccc4ccccc34)c2)CC1` [Compound 12, 1-[1-(1-Heptanoyl-piperidin-4-ylmethyl)-1H-imidazol-5-ylmethyl]-3-[N-(2-methoxyethyl)-N-methyl]carbamoyl-4-(naphthalen-1-yl)-1H-pyrrole], for which the IC50 at Ras farnesyl transferase [1] was 1 to 10 nM; on Ras farnesyl transferase [2], 1000 to 50000 nM; at Ras farnesyl transferase [3], 10 nM; at Ras farnesyl transferase [4], 10 to 1000 nM.
For the molecule `COCCN(C)C(=O)c1cn(Cc2cncn2CC2CCN(C(=O)Cc3ccc(OC)cc3)CC2)cc1-c1cccc2ccccc12` [Compound 13, 1-{1-[1-(4-Methoxybenzylcarbonyl)-piperidin-4-ylmethyl]-1H-imidazol-5-ylmethyl}-3-[N-(2-methoxyethyl)-N-methyl]carbamoyl-4-(naphthalen-1-yl)-1H-pyrrole], the IC50 on Ras farnesyl transferase [1] lay in the range of 1 to 10 nM; at Ras farnesyl transferase [2], 1000 to 50000 nM; on Ras farnesyl transferase [3] it was 10 to 100 nM; on Ras farnesyl transferase [4], 10 to 1000 nM.
